In general, pKd refers to −log10 of the Kd, conventionally taken in molar units. High values mean a low Kd, low ones a high Kd. Broadly, the EC50 is the midpoint of the concentration-response curve. The low end stands for an effect from little substance, the high end for a need for much substance. As a reminder, the Ki is the equilibrium dissociation constant of an inhibitor or competing ligand from its target. Read a high Ki as weaker binding.

The target in experiment [1] is T1, FZD6 (Nluc–FZD6; SNAP–FZD6; SNAP–FZD6–Rluc8; FLAG–FZD6–Nluc) (Homo sapiens, UniProt O60353).
T1 construct: expressed in SMO-knockout HEK293 cells
T1 sequence (O60353 19-706): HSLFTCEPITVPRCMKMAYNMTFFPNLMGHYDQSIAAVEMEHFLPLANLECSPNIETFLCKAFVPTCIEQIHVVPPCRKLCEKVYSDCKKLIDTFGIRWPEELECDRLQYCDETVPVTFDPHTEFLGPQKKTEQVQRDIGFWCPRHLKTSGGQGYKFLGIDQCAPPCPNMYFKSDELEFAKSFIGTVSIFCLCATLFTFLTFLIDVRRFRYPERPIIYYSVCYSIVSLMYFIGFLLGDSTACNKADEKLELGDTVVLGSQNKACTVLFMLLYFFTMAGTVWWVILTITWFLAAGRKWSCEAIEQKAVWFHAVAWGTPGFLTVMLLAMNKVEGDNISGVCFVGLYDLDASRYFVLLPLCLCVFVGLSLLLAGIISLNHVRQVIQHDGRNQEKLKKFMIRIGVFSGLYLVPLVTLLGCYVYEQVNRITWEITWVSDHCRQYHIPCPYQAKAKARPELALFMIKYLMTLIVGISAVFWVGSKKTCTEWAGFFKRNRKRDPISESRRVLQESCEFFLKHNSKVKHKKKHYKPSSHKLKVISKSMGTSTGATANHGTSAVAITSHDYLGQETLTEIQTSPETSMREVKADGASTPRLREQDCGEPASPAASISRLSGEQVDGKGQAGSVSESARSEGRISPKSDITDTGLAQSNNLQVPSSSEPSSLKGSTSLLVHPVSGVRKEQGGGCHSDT
The experiment is described as follows: NanoBRET saturation binding, living SMO-knockout HEK293 cells. It is filed as cell-based. As to conditions: Nluc–FZD6, 90 min, 37 °C; labelled compound. Background: In BRET a luciferase serves as donor, and the signal depends on an acceptor being close.

Experiment [2] addresses T1, FZD6 (Nluc–FZD6; SNAP–FZD6; SNAP–FZD6–Rluc8; FLAG–FZD6–Nluc). Description: BRET Venus–mGsi recruitment in SMO-knockout HEK293 cells. It is filed as cell-based. The conditions noted are these: agonist; bell-shaped curve.
For another experiment, the target named is T2, FZD6–FlAsH–TFP (Homo sapiens, UniProt O60353, INS404FLNCCPGCCMEP).
T2 construct: from FZD6–GFP; expressed in HEK293 cells
T2 sequence (O60353 with tags, fused parts or gaps INS404FLNCCPGCCMEP): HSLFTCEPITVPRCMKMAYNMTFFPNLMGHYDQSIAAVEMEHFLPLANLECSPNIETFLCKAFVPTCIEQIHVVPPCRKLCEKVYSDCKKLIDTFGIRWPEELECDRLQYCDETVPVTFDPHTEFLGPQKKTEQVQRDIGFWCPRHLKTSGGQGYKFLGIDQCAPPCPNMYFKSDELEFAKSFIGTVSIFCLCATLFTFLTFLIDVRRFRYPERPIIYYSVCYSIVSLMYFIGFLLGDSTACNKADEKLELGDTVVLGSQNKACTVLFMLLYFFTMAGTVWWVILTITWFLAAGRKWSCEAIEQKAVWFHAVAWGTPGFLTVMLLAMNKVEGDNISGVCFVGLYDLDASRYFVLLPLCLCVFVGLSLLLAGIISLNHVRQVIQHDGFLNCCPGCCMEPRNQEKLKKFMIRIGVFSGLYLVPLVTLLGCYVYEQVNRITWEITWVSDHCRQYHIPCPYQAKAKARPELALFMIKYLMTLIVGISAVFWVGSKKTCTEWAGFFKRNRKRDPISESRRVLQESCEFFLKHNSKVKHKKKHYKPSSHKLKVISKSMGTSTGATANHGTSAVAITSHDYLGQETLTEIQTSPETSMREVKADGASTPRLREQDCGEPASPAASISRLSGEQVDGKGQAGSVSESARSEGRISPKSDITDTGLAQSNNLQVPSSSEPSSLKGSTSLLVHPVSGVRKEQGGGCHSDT
Description: intramolecular FRET conformational probe in HEK293 cells. Type of experiment: cell-based.

Experiment [3] addresses T1, FZD6 (Nluc–FZD6; SNAP–FZD6; SNAP–FZD6–Rluc8; FLAG–FZD6–Nluc). The experiment is described as follows: NanoBRET competition binding, living SMO-knockout HEK293 cells. It is filed as cell-based.
Experiment [4] concerns the target T3, FZD4 (FZD4–Nluc; SNAP–FZD4) (Homo sapiens, UniProt Q9ULV1).
T3 construct: full-length receptor with C-terminal Nluc or N-terminal SNAP; expressed in HEK293-derived cells
T3 sequence (Q9ULV1 37-537): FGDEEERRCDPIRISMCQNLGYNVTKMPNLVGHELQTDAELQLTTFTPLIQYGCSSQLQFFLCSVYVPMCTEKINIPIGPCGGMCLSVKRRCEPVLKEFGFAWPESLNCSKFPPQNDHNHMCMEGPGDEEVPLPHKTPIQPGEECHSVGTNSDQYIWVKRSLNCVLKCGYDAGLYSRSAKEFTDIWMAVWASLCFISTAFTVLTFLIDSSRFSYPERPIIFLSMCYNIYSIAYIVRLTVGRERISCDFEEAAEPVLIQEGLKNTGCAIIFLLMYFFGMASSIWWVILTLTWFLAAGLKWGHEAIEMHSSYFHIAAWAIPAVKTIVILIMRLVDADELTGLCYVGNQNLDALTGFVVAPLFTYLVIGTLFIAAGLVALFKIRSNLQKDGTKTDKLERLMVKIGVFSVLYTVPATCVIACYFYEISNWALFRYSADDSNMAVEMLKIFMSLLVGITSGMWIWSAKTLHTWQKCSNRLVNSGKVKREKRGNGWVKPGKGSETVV
The experiment is described as follows: BRET Venus–mG13 recruitment to FZD4–Nluc. As to conditions: negative control subtype. Type of experiment: cell-based.

In a further experiment the target is T4, SMO–Rluc8 (Mus musculus, UniProt P56726).
T4 construct: full-length receptor with C-terminal Rluc8; expressed in HEK293-derived cells
The experiment is described as follows: BRET Venus–mGsi recruitment to SMO–Rluc8. It is filed as cell-based. The conditions noted are these: agonist; no bell shape.

Experiment [5] deals with T1, FZD6 (Nluc–FZD6; SNAP–FZD6; SNAP–FZD6–Rluc8; FLAG–FZD6–Nluc). The experiment is described as follows: BRET Venus–mGsi recruitment to SNAP–FZD6–Rluc8. Type of experiment: cell-based. The conditions noted are these: agonist; no bell shape.
In the next experiment the target is T5, FZD6–FlAsH–TFP (human) (UniProt O60353).
T5 sequence (chain, FlAsH (fluorescein arsenical hairpin binder) labelled on the FlAsH-binding motif): T1 sequence (O60353 19-706)

Counter-ions that a name gives are not always drawn.

T4 sequence (P56726 33-793): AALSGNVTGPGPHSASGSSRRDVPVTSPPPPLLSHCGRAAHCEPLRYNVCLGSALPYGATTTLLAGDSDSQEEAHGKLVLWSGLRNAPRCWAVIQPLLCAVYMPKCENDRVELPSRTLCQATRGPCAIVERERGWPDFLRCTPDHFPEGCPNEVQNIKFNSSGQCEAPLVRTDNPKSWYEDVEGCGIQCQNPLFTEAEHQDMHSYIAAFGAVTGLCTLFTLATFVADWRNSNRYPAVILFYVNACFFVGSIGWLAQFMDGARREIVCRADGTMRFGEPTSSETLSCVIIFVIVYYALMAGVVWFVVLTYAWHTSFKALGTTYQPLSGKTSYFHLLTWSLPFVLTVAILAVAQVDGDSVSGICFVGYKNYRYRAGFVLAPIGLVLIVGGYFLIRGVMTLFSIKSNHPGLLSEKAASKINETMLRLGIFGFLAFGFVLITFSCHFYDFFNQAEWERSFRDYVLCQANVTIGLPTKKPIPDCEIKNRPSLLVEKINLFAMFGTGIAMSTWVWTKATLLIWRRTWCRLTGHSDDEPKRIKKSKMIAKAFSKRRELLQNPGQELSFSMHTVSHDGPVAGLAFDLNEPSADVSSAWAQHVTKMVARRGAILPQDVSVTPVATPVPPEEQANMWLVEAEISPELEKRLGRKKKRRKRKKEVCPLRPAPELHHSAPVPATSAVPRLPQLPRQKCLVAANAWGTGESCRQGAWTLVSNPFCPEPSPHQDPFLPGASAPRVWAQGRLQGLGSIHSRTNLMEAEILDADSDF

The molecule `CC1=C2CC3C(CC=C4C[C@@H](O)CCC43C)C2CCC12O[C@@H]1CC(C)CN(CCNC(=O)CCCCCNC(=O)CCC3=[N+]4C(=Cc5c(C)cc(C)n5[B-]4(F)F)C=C3)C1C2C` (stereo partly drawn) [BODIPY–cyclopamine] gave a pKd in experiment [1] of 6.3 ± 0.1.
As to `CN[C@H]1CC[C@H](N(Cc2cccc(-c3ccncc3)c2)C(=O)c2sc3ccccc3c2Cl)CC1` [SAG1.3, 3-chloro-N-[trans-4-(methylamino)cyclohexyl]-N-[[3-(4-pyridinyl)phenyl]methyl]-benzo[b]thiophene-2-carboxamide dihydrochloride], the 50% effective concentration (EC50) result in experiment [2] was “A similar biphasic concentration–response curve was observed”; on FZD6–FlAsH–TFP, 316 nM. Besides, the Ki in experiment [3] was 2510 nM. The “BRET Venus-mG13 recruitment to FZD4-Nluc” value in experiment [4] is recorded as “we did not detect any SAG1.3-induced Venus–mG13 recruitment”.
`c1ccc2c(Oc3nc(Nc4ccc(N5CCOCC5)cc4)c4ncn(C5CCCCC5)c4n3)cccc2c1` [purmorphamine, 9-cyclohexyl-N-[4-(4-morpholinyl)phenyl]-2-(1-naphthalenyloxy)-9H-purin-6-amine]: the EC50 entry on SMO–Rluc8 is “concentration-dependent recruitment of Venus–mGsi to SMO–Rluc8 and SNAP–FZD6–Rluc8”; in experiment [5], “concentration-dependent recruitment of Venus–mGsi to SMO–Rluc8 (d) and SNAP–FZD6–Rluc8”.

B1: recombinant WNT-5A (ligand)
chain: IIGAQPLCSQLAGLSQGQKKLCHLYQDHMQYIGEGAKTGIKECQYQFRHRRWNCSTVDNTSVFGRVMQIGSRETAFTYAVSAAGVVNAMSRACREGELSTCGCSRAARPKDLPRDWLWGGCGDNIDYGYRFAKEFVDARERERIHAKGSYESARILMNLHNNEAGRRTVYNLADVACKCHGVSGSCSLKTCWLQLADFRKVGDALKEKYDSAAAMRLNSRGKLVQVNSRFNSPTTQDLVYIDPSPDYCVRNESTGSLGTQGRLCNKTSEGMDGCELMCCGRGYDQFKTVQTERCHCKFHWCCYVKCKKCTEIVDQFVCK
In the case of B1, in the experiment with FZD6–FlAsH–TFP (human), the decrease of the intramolecular FRET ratio (FlAsH/TFP) of the FZD6–FRET probe in HEK293 cells with increasing concentrations of WNT-5A; log10EC50 (log10 (ng ml^−1)) came to 2.2 and the decrease of the intramolecular FRET ratio (FlAsH/TFP) of the FZD6–FRET probe in HEK293 cells, WNT-5A up to 1000 ng ml^−1; maximum efficacy was 4.9%.

The record behind these values is article PMC6972889, “Structural insight into small molecule action on Frizzleds” (Nature Communications, 2020).
